Data as given in patent US4755517A, “Derivatives of xanthine, pharmaceutical compositions and methods of use therefor” (Warner-Lambert Company, priority 1986, dated 1988).

How the values were obtained:
adenosine A1 receptor = target: T1, adenosine A1 receptor (Rattus norvegicus, UniProt P25099); assay: [3H]-N6-cyclohexyladenosine binding to rat whole brain membranes (A1 affinity, RBA-1)
T1 construct: from tissue; host or cells: rat whole brain membranes
T1 sequence (P25099 1-326): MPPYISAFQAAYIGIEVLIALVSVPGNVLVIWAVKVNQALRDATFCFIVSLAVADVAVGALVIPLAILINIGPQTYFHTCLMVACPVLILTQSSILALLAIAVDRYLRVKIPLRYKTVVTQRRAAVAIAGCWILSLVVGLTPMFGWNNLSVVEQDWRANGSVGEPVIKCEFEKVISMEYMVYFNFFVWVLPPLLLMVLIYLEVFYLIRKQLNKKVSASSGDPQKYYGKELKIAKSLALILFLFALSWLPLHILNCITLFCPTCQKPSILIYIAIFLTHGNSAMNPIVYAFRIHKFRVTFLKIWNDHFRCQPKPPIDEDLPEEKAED

adenosine A2 receptor = target: T2, adenosine A2 receptor (Rattus norvegicus, UniProt P30543); assay: [3H]-NECA binding to rat striatal membranes (A2 affinity, RBA-2)
T2 construct: from tissue; host or cells: rat striatal membranes

mouse locomotor activity = assay: Locomotor activity of mice, drug alone; type: in vivo, Male Swiss-Webster mice; conditions: for percent suppression of locomotion: alone; for effect on spontaneous exploratory activity (in words): mice
Method: Suspensions are ultrasonicated for 3 minutes.

T2 sequence (P30543 whole entry): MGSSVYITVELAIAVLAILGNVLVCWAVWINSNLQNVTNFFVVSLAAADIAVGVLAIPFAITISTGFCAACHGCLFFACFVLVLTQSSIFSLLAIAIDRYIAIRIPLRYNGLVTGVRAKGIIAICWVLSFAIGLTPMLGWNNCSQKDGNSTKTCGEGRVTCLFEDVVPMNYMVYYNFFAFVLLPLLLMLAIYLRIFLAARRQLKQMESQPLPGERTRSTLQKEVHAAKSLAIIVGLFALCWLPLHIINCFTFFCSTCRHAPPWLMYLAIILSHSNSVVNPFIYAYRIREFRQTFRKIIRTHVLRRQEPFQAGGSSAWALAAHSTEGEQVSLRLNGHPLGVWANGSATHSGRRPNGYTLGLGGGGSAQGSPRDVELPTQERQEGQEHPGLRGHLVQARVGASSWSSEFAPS

Row | SMILES | IC50 (adenosine A1 receptor) [nM] | IC50 (adenosine A2 receptor) [nM] | percent suppression of locomotion (mouse locomotor activity; CV-1808 8 mg/kg IP) [%] | effect on spontaneous exploratory activity (in words) (mouse locomotor activity) | percent suppression of locomotion (mouse locomotor activity; CPA 2 mg/kg IP) [%]
1 | CCCn1c(=O)c2[nH]c(C3CCOC3)nc2n(CCC)c1=O (stereo not shown) [Example 3, 1,3-Dipropyl-8-(3-tetrahydrofuranyl)xanthine] | 28 | 4650 |  |  | 
2 | Nc1nc(Nc2ccccc2)nc2c1ncn2[C@@H]1O[C@H](CO)[C@@H](O)[C@H]1O [CV-1808, 2-anilinoadenosine] |  |  | 83 | inhibition of spontaneous exploratory activity | 
3 | CCCn1c(=O)c2[nH]c(C3CCSC3)nc2n(CCC)c1=O (stereo not shown) [Example 1, 1,3-Dipropyl-8-(3-tetrahydrothienyl)xanthine] | 2 | 622 |  |  | 
4 | OC[C@H]1O[C@@H](n2cnc3c(NC4CCCC4)ncnc32)[C@H](O)[C@@H]1O [CPA, N^6 -cyclopentyladenosine] |  |  |  | inhibition of spontaneous exploratory activity | 94
5 | CCCn1c(=O)c2[nH]c(C3CCCO3)nc2n(CCC)c1=O (stereo not shown) [Example 2, 1,3-Dipropyl-8-(2-tetrahydrofuranyl)xanthine] | 20 | 3100 |  |  | 
6 | CCCn1c(=O)c2[nH]c(C3CCCS3)nc2n(CCC)c1=O (stereo not shown) [Example 5, 1,3-Dipropyl-8-(2-tetrahydrothienyl)xanthine] | 88 |  |  |  | 
7 | Cn1c(=O)c2nc(C3CCOC3)[nH]c2n(C)c1=O (stereo not shown) [Example 4] | 400 | 2000 |  |  | 
